In PMC10206040, “Identification of novel anti-amoebic pharmacophores from kinase inhibitor chemotypes” (Frontiers in Microbiology, 2023):
Where two headings read alike, the source gives them in different places.

Key:
[1] = test system: Balamuthia mandrillaris (CDC:V039; ATCC 50209) trophozoites; assay: CellTiter-Glo 2.0 trophocidal assay, B. mandrillaris; type: cell-based; settings: Balamuthia mandrillaris, ATCC50209, 72 h
Excerpt: For sub-culturing, 0.25% Trypsin–EDTA (Gibco) cell detachment reagent was used to detach the cells from the culture flasks.

[2] = test system: Naegleria fowleri (ATCC 30215) trophozoites; assay: microbe, parasite or virus in culture
Method: Trophozoites were routinely grown axenically at 34°C, 5% CO2, in Nelson’s complete medium (NCM) in non-vented 75 cm^2 tissue culture flasks (Olympus), until the cells were 80–90% confluent. For sub-culturing, cells were placed on ice to detach the cells from the culture flasks. […] Complete NCM media is prepared by the addition of 10% fetal bovine serum (FBS) and 100 U/mL penicillin, and 100 μg/mL streptomycin antibiotics.
Trophozoites were routinely cultured as described above and only logarithmic trophozoites were used.
All assays were incubated at each of the parasites’ representative growth temperatures, described above, for 72 h. At the 72-h time point, 25 μL of CellTiter-Glo 2.0 reagent was added to all wells of the 96-well plates by hand. The plates were protected from light and contents were mixed using an orbital shaker at 300 rpm at room temperature for 2 min to induce cell lysis. After shaking, the plates were equilibrated at room temperature for 10 min to stabilize the luminescent signal. The ATP luminescent signal (relative light units; RLUs) were measured […] with a SpectraMax I3X plate reader (Molecular Devices, Sunnyvale, CA, United States). […] Values reported are from a minimum of three biological replicates with standard deviation.

[3] = Rat skeletal muscle cell line (L6) cytotoxicity assay (resazurin); settings: rat
Method: (§1) One hundred microliters (100 μL) per well of culture medium containing the compounds and controls were added to L6 cells previously cultured (4 × 10^3 L6 cells per well). After 72 h at 37°C the medium was exchanged, and the viable cell number was determined by resazurin (Sigma–Aldrich) reduction. 20 μl of resazurin (1.1 mg/ml) was added to each well and incubated in the dark for 2 h at 37°C.

L6 cells = assay: as above; settings: Table S2; in µM
Method: as §1

[4] = test system: Acanthamoeba castellanii T4 isolate (ATCC 50370) trophozoites; assay: CellTiter-Glo 2.0 trophocidal assay, A. castellanii; type: cell-based; settings: Acanthamoeba castellanii, ATCC50370, 72 h, read-out: Acanthamoeba castellanii EC50 ± SD
Excerpt: This isolate was purchased from American Type Culture Collection (ATCC). […] For sub-culturing, cells were mechanically harvested to detach the cells from the culture flasks.

MRC5 cells = assay: Human fetal lung fibroblast (MRC5) cell cytotoxicity assay (resazurin); settings: for MRC5 TC50 ± Standard Deviation: Table S2, in µM
Method: (§2) Intermediate plates were made as described, adding 95 μL of DMEM complete media to 5 μL of compound per well setting a 5% DMSO amount. Log-phase MRC5 cells were removed from a T-75 TC flask using TrypLE® Express (Thermo®) and dispersed by gentle pipetting. Cell density was adjusted to working concentration in prewarmed DMEM medium: 25,000 cells in 90 μL of culture were plated in 96-well transparent Nunclon plates and allowed to settle for 24 h at 37°C and 5% CO2. […] Plates were incubated for 48 h at 37°C and 5% CO2. At 4 h prior to fluorescence measurement, 20 μL of 500 μM resazurin solution was added.
(§3) A four-parameter equation was used to fit the dose–response curves and determination of EC50 by SigmaPlot ® 13.0 software. Assays were performed in duplicate at least twice for positive compounds, to achieve a minimal […] per dose response.

[5] = as above; settings: human
Method: as §2, §3

THP-1 = assay: Cytotoxicity assay in THP-1 (MTT); type: cell-based; settings: Table S2, 72 h, maximal concentration 50 μM
Method: Cytotoxicity assay in TH P-1. Cellular toxicity of all compounds was determined using the colorimetric MTT-based assay after incubation at 37 °C for 72 h in the presence of increasing concentrations of compounds (final maximal concentration was 50 μM in 0.5% DMSO per well) [ 1] . The results are expressed […]
cells. Assays were performed in duplicate at least twice to achieve a minimal n=3 per dose response. […]
Cytotoxicity assay in THP-1. Cellular toxicity of all compounds was determined using the colorimetric MTT-based assay after incubation at 37 °C for 72 h in the presence of increasing concentrations of compounds (final maximal concentration was 50 μM in 0.5% DMSO per well). […] Assays were performed in duplicate at least twice to achieve a minimal n=3 per dose response.

[6] = logarithmic trophozoites, 72 h, n = 3, read-out: Balamuthia mandrillaris EC50 ± SD
[7] = Naegleria fowleri, ATCC30215, 72 h, read-out: Naegleria fowleri EC50 ± SD, logarithmic trophozoites, 72 h, n = 3 (converted)
[8] = read-out: Naegleria fowleri EC50 ± SD, logarithmic trophozoites, 72 h, n = 3
[9] = L6 cells (rat skeletal muscle cell line)
[10] = logarithmic trophozoites, 72 h, n = 3
[11] = MRC5 cells (human fetal lung fibroblasts)
[12] = read-out: Balamuthia mandrillaris EC50 ± SD
[13] = Naegleria fowleri, 72 h, read-out: Naegleria fowleri EC50 ± SD, logarithmic trophozoites, 72 h, n = 3 (converted)

SMILES | EC50 [1, 6] [µM] | L6 TC50 ± Standard Deviation (L6 cells) | EC50 [4, 10] [µM] | MRC5 TC50 ± Standard Deviation (MRC5 cells) | CC50 at 48 h [5, 11] [µM] | THP-1 TC50 ± Standard Deviation (THP-1) | EC50 [2, 13] [µM] | other results
Nc1ccnc(-c2cc3c4c(n[nH]c4c2)Nc2ccccc2O3)n1 [Compound 1a] | 17 ± 3 | 32 ± 2.5 | 3.8 ± 0.46 | > 50 | > 50 | > 50 |  | EC50 [2, 7]: ≤ 14 µM; EC50 [2, 8]: 8.5 ± 0.34 µM; CC50 at 72 h [3, 9]: 32 ± 2.5 µM
c1ccc(Nc2nccc(-c3cnn4ccccc34)n2)cc1 [Compound 2a] |  |  |  |  | > 50 |  | 0.94 ± 0.17 | EC50 [1, 12]: 4.2 ± 0.6 µM; EC50 [4]: 13 ± 6.9 µM
N#Cc1cccc(Nc2nccc(-c3c(C4CC4)nn4nc(N5CCOCC5)ccc34)n2)c1 [Compound 2c] |  |  |  |  | > 50 |  | 3.5 ± 0.7 | EC50 [4]: 5.9 ± 0.17 µM
Cc1cc(-c2cnn3ncccc23)nc(Nc2cccc(C#N)c2)n1 [Compound 2e] |  |  |  |  | > 50 |  |  | EC50 [4]: > 20 µM
N#Cc1cccc(Nc2cccc(-c3cnn4ncccc34)n2)c1 [Compound 2f] |  |  |  |  | > 50 |  |  | EC50 [1, 12]: > 20 µM; EC50 [4]: > 20 µM
N#Cc1cccc(Nc2cccc(-c3cnn4ncccc34)c2)c1 [Compound 2g] |  |  |  |  | 19 ± 1 |  |  | EC50 [1, 12]: > 20 µM; EC50 [4]: > 20 µM
OC1CCC(Nc2nccc(-c3cnn4nc(N5CCOCC5)ccc34)n2)CC1 (stereo not drawn) [Compound 2k] |  |  |  |  | > 50 |  | ≤ 14 | EC50 [1, 12]: > 20 µM; EC50 [2, 8]: 7.5 ± 2.5 µM
c1cnn2ncc(-c3ccnc(NC4CCCCC4)n3)c2c1 [Compound 2p] |  |  |  |  | > 50 |  | 1.4 ± 0.76 | EC50 [1, 12]: 7.5 ± 3.1 µM
Fc1ccc(Nc2nccc(-c3c(C4CC4)nn4ncccc34)n2)cc1F [Compound 2q] |  |  |  | > 50 |  |  |  | EC50 [2, 7]: 12 ± 7.8 µM; CC50 at 48 h [5]: > 50 µM
c1cncc(Nc2nccc(-c3c(C4CC4)nn4ncccc34)n2)c1 [Compound 2r] |  |  |  |  | > 50 |  | 16 ± 3.7 | EC50 [1, 12]: 13 ± 7.5 µM
COc1ccc2c(-c3ccnc(NC4CCC(O)CC4)n3)c(C3CC3)nn2n1 (stereo not drawn) [Compound 2u] |  |  |  |  | > 50 |  |  | EC50 [1, 12]: 9.4 ± 3.4 µM
N#Cc1cccc(-c2n[nH]c3ncc(-c4cnn(C5CCOCC5)c4)cc23)c1 [Compound 4a] | 3.3 ± 0.62 | 2.8 ± 0.92 | 11 ± 9 | > 50 | > 50 | > 50 |  | CC50 at 72 h [3, 9]: 2.8 ± 0.92 µM
Cc1c(-c2cnn(C3CCOCC3)c2)cnc2[nH]cc(-c3cccc(C#N)c3)c12 [Compound 4b] | 1 ± 0.12 | 11 ± 1.5 | 11 ± 2.3 | > 50 | > 50 | > 50 |  | CC50 at 72 h [3, 9]: 11 ± 1.5 µM; activity/toxicity against MRC5 cells (in words) (MRC5 cells; up to 50 μM): not toxic
Cn1cc(-c2cnc3[nH]cc(-c4cncc(C#N)c4)c3c2)cn1 [Compound 4e] | 8.3 ± 1.3 | > 50 |  | > 50 | > 50 | > 50 |  | EC50 [2, 7]: > 20 µM
CN(C)Cc1ccc(-c2cc3c(-c4cnn(C)c4)ccnc3[nH]2)cc1 [Compound 5c] |  | < 0.62 |  | 14 ± 2.4 |  | < 0.62 | 5.6 ± 0.29 | EC50 ([1]; read-out: Balamuthia mandrillaris EC50 ± SD, logarithmic trophozoites, 72 h, n = 3 (converted)): 12 ± 0.09 µM; CC50 at 72 h [3]: < 0.62 µM; CC50 at 48 h [5]: 11 ± 0.9 µM
FC1(F)CCN(c2nc(Nc3ccsc3)nc3[nH]cnc23)CC1 [Compound 6e] |  | > 50 |  | > 50 | > 50 | > 50 |  | EC50 [2, 7]: > 20 µM; CC50 at 72 h [3, 9]: > 50 µM
O=C(N[C@H](CO)c1ccccc1)c1cc(-c2c[nH]c3ncccc23)[nH]n1 [Compound S12, (S)-N-(2-Hydroxy-1-phenylethyl)-5-(1H-pyrrolo[2,3-b]pyridin-3-yl)-1H-pyrazole-3-carboxamide] | > 20 | > 17 | > 20 | 42 ± 7.7 |  | 42 ± 11 |  | EC50 [2, 7]: > 20 µM
O=C(N[C@H](CO)c1ccccc1)c1ccc(-c2c[nH]c3ncccc23)nc1 [Compound S15, (S)-N-(2-Hydroxy-1-phenylethyl)-6-(1H-pyrrolo[2,3-b]pyridin-3-yl)nicotinamide] | > 20 | > 50 | > 20 | > 50 |  | 26 ± 2.0 |  | EC50 [2, 7]: > 20 µM
O=C1OCc2ccc(Nc3nccc(Nc4cccc5c4C(=O)NC5)n3)cc21 [Compound S20, 7-((2-((3-oxo-1,3-dihydroisobenzofuran-5-yl)amino)pyrimidin-4-yl)amino)isoindolin-1-one] | > 20 | > 50 | > 20 | > 50 |  | > 50 |  | EC50 [2, 7]: 3.3 ± 1 µM
Cn1cc(Nc2nc(NCC(F)(F)F)c3nc[nH]c3n2)cn1 [Compound S21] | > 20 | 28 ± 1.4 | > 20 | 50 |  | > 50 | > 20 | 
Cn1cc(Nc2nc(N3CCOCC3)c3nc[nH]c3n2)cn1 [Compound S22] | > 20 | 11 ± 1.0 | > 20 | 19 ± 0.42 |  | 19 ± 0.52 | > 20 | 
Fc1ccc(Nc2nc(NCC(F)(F)F)c3nc[nH]c3n2)cc1 [Compound S23] | > 20 | > 50 | > 20 | > 50 |  | > 50 | > 20 | 
Cn1cc(Nc2nc(NCCCC(F)(F)F)c3nc[nH]c3n2)cn1 [Compound S24] | > 20 | > 50 | > 20 | 50 ± 0 |  | > 50 | > 20 | 
CN(C)S(=O)(=O)c1ccc(N/N=C2\C(=O)Nc3ccccc32)cc1 [Compound S30] | > 20 |  | > 20 | > 50 |  | > 50 | > 20 | 
c1cc(-c2c[nH]c3ncc(-c4cnn(C5CCOCC5)c4)cc23)ccn1 [Compound S31] | > 20 | 5.7 ± 0.49 | > 20 | 7.9 ± 2.3 |  | 5.8 ± 0.43 | > 20 | 
